In ChEMBL document CHEMBL3988181, “GlaxoSmithKline Published Kinase Inhibitor Set 2 Onchocerca lienalis Screening Data”:

Test: GSK PKIS2: Screen against O. lienalis microfilariae, single point, at 3.1uM to assess reduction in motility. Compounds were also tested for cytotoxicity against Rhesus Monkey LLCMK2 cells.
Assay type: functional, Onchocerca lienalis, LLC-MK2
Settings: CELL_LINE LLCMK2; CELL_SUPPLIER ECACC; CONC 3.1 uM; ORGANISM_SUPPLIER Extracted from peri-umbilical skin obtained from naturally infected cattle in the UK; temperature 37 degree C

Compound	MOTILITY REDUCTION/CYTOTOXICITY
Cc1nnc(-c2ccc(C)c(-c3ccc(C(=O)Nc4ccc(NS(C)(=O)=O)cc4)cc3)c2)o1	0%
c1ccc(Cn2ccc3cc(Nc4ncnc5ccccc45)ccc32)cc1	33.4%
c1ccc(-c2n[nH]cc2-c2ccnc3ccccc23)nc1	0%
CCn1c(-c2nonc2N)nc2c(C#CC(C)(C)O)nc(OCCN)cc21	0%
Fc1ccc(-c2ncn(C3CCNCC3)c2-c2ccnc(Oc3ccc(-c4ccccc4)cc3)n2)cc1	0%
Cn1cc(-c2ccc3c(c2)CCN3C(=O)Cc2ccccc2Cl)c2c(N)ncnc21	16.7%
Nc1nc(-c2ccc3c(N)n[nH]c3c2)cc(N2CCCCC2)n1	0%
Nc1nc(-c2ccc3c(N)n[nH]c3c2)cc(N2CCC[C@@H](C(=O)Nc3ccccc3)C2)n1	0%
CNc1ncnc2[nH]ncc12	0%
CCCC(=O)Nc1n[nH]c2ncc(-c3cccc4ccccc34)cc12	0%
Oc1cc(Nc2ccnc3cc(I)ccc23)ccc1F	33.4%
CCS(=O)(=O)c1ccc(OC)c(Nc2nccc(-c3c(-c4cccc(NC(=O)c5c(F)cccc5F)c4)nn4ncccc34)n2)c1	33.4%
Cc1cccc2c(-c3ccncn3)c(-c3ccc(F)cc3)nn12	13.4%
O=c1[nH]cc(-c2ccc(O)cc2)c2sc(-c3ccncc3)cc12	0%
Cc1ccc(NC(=O)c2cccc(N3CCCCC3)c2)cc1-c1ccc(C(=O)NCC2CC2)cc1	20%
COc1cc2ncnc(Nc3ccc4nc(-c5ccccc5)[nH]c4c3)c2cc1OC	73.4%
CC(C)(C)c1ccc2nccc(Nc3cccc(O)c3)c2c1	100%
CC(C)c1nc(-c2cccc(NS(=O)(=O)c3c(F)cccc3F)c2)c(-c2ccnc(Nc3ccc(N4CCOCC4)nc3)n2)s1	0%
COc1cc2ncn(-c3cc(OCc4ccncc4Br)c(C(N)=O)s3)c2cc1OC	0%
Cc1cccc(-c2nc(Nc3ccc4nn[nH]c4c3)c3ccccc3n2)n1	20%
c1ccc(Oc2ccc(Nc3ccnc4cc(-c5ccc(CNCCN6CCOCC6)o5)ccc34)cc2)nc1	0%
Cc1cccc(-c2nc(Nc3ccncc3)c3ccccc3n2)n1	0%

Compound	MOTILITY REDUCTION/CYTOTOXICITY
O=C1NC(=O)C(c2ccc(Cl)cc2)=C1Nc1ccccc1	33.4%
Nc1nccc(-c2c(-c3ccc(F)cc3)ncn2C2CCN(Cc3ccccc3)CC2)n1	0%
O=c1cc(N2CCOCC2)nc2n(Cc3cccc4ccccc34)ccn12	0%
CC(C(=O)NC1CCN(c2ccnc(Nc3ccc(F)cc3)n2)C1)c1ccc(Cl)cc1 (stereo unspecified)	33.4%
COC(=O)Nc1nc2ccc(Oc3ccc(NC(=O)Nc4cccc(SC)c4)cc3)cc2[nH]1	20%
OCCCNc1nccc(-c2c(-c3cccc(C(F)(F)F)c3)nn3cc(C(F)(F)F)ccc23)n1	0%
COc1ccc(-c2oc3ncnc(N)c3c2-c2ccc(OC)cc2)cc1	20%
O=C(Nc1cccc(-c2nn3ccccc3c2-c2ccnc(Nc3cccc(F)c3)n2)c1)c1c(F)ccc(F)c1Cl	0%
COc1ccc(C[C@@H](CN)NC(=O)c2cc(Br)c(-c3ccnc4[nH]ccc34)s2)cc1	33.4%
NS(=O)(=O)c1cccc(N/C=C2\C(=O)Nc3ccc(S(=O)(=O)Cc4c(Cl)cccc4Cl)cc32)c1	33.4%
C[C@@H](Oc1cc(-n2cnc3cc(-c4cnn(C)c4)ccc32)sc1C(N)=O)c1ccccc1Cl	46.7%
FC(F)(F)c1ccc(/C=C/c2cncnc2Nc2ccc3[nH]c(Cc4ccccc4)nc3c2)cc1	100%
CCn1c(-c2ccccc2)nc2cnccc21	0%
CCCCc1nn2ncccc2c1-c1ccnc(Nc2ccc(N3CCN(C)CC3)cc2)n1	13.4%
O=C(NCCNc1ccnc(Nc2ccc(F)cc2)n1)c1cc2ccccc2s1	66.7%
Cc1occc1-c1ncc(OC[C@@H](N)Cc2c[nH]c3ccccc23)cc1-c1ccc2[nH]nc(C)c2c1	0%
COc1ccc(NC(=O)Nc2ccc(C)c(-c3ccc(C(=O)Nc4ccncc4)cc3)c2)cc1	80%
O=C(c1ccc(-c2cc(-c3c[nH]nc3-c3ccccn3)ccn2)cc1)N1CCCC1	0%
CCCCc1nn2ncccc2c1-c1ccnc(NC2CC2)n1	0%
NCCS[As](SCCN)c1ccc(Nc2nc(N)nc(N)n2)cc1	100%
CCn1cnc2c(NCc3ccccc3)ncnc21	0%
Cc1cccc(-c2cc(Nc3ccncc3)c3ccccc3n2)n1	0%

Compound	MOTILITY REDUCTION/CYTOTOXICITY
Cc1ccc(CC(=O)N2CCc3cc(-c4cn(C)c5ncnc(N)c45)ccc32)cc1	0%
Cc1ccc(NC(=O)Nc2ccc(Cl)c(C(F)(F)F)c2)cc1-c1ccc(C(=O)Nc2ccncc2)cc1	40%
Cc1ccc(O)cc1Nc1ccnc2ccc(C(C)(C)C)cc12	100%
CN(C)c1cc(-c2ccc3c(N)n[nH]c3c2)nc(N)n1	0%
CN1CCN(Cc2cccc(-c3ccc4c(Nc5ccc(Oc6ccccc6)cc5)ccnc4c3)c2)CC1	100%
COc1cccc(-c2[nH]c(-c3ccccc3)nc2-c2ccncc2)c1	33.4%
Fc1ccc(-c2ncn(C3CCNCC3)c2-c2ccnc(Nc3ccccc3)n2)cc1	0%
COc1cc2ncnc(Nc3cccc(Br)c3)c2cc1OC	60%
COC(=O)c1cccc(NC(=O)NC2CCN(c3ccnc(Nc4cc(OC)c(OC)c(OC)c4)n3)C2)c1 (stereo unspecified)	66.7%
Cn1ccc(-c2cccc(Nc3ccnc4cc(-c5nccs5)ccc34)c2)n1	0%
COc1cc2c(Nc3cccc(NC(=O)c4ccccc4)c3)ncnc2cc1OCCCN1CCOCC1	0%
CS(=O)(=O)CCNCc1ccc(-c2ccc3ncnc(Nc4ccc(OCc5ccccc5)c(Cl)c4)c3c2)o1	20%
COc1ccc(C2=C(Nc3cccc(O)c3)C(=O)NC2=O)cc1	13.4%
Cc1c(Cn2c(C)nn3c(=O)cc(N4CCO[C@H](C)C4)nc23)cccc1C(F)(F)F	0%
O=C(NCC1CC1)c1ccc(-c2cc(C(=O)NC3CC3)ccc2F)cc1	0%
CCCCCc1nc2c(N)ncnc2n1CCCCC	0%
CC(=O)Nc1ccc(COc2ccc(Nc3ccnc4cc(-c5ccccn5)ccc34)cc2)cc1	100%
Cc1ccc(Nc2ccnc(Nc3ccc(C)c(F)c3)n2)cc1O	33.4%
Nc1nc(Nc2ccccc2)cc(-c2ccc3c(N)n[nH]c3c2)n1	0%
COc1ccc(-c2nc3n(c2-c2ccncc2)CCC3)cc1	0%
COc1ccc(Nc2nccc(N3CCC(NC(=O)Nc4cccc(OC)c4)C3)n2)cc1 (stereo unspecified)	0%
Nc1nc(-c2ccccc2F)c(-c2ccnc3ccccc23)s1	46.7%
